In US9279806B2, “Water-soluble AIE luminogens for monitoring and retardation of fibrillation of amyloid proteins” (THE HONG KONG UNIVERSITY OF SCIENCE AND TECHNOLOGY, priority 2005, dated 2016):
Like-named read-outs stand apart in the source and are kept apart here. Each block holds one compound with its values, some of them ahead of it.

How the values were obtained:
HSA = HSA (Homo sapiens, UniProt P02768); conditions: cited from earlier work
Solubility = assay type: physicochemical
[1] = Photophysical properties in solution and aggregate states (AIE effect); assay type: physicochemical; conditions: for Fluorescence quantum yield (ΦF), molecularly dissolved: AN solution / AN-water mixtures with low water fraction; for Fluorescence quantum yield (ΦF), aggregated: AN/water mixture with 99% water
Source text: Changes in the φF values of TBEPE in the AN/water mixtures with different water contents further confirm its AIE nature. […] Afterward the φF value starts to increase swiftly. In the AN/water mixtures with lower water fractions, TBEPE is genuinely dissolved, while in the aqueous mixtures with higher water fractions (>60%), the dye molecules cluster together due to the deterioration in the solvating power of the mixture. When the water fraction is increased to 99 vol %, the aφF value is increased to −18%, which is ˜35-fold higher than that in the pure AN solvent. The absolute φF values of the aggregates should be much higher than the relative ones given in FIG. 26A, if the light scattering caused by the Mie effect of the nanoaggregatcs is taken into consideration. […]
Dilute solutions of TPEs 1 and 2 in AN are practically non-luminescent. Addition of non-solvent water into the AN solutions can turn on the emissions of the dyes. From the molecular solution in AN to the aggregate suspension in an AN-water mixture (1:99 by volume), the fluorescent intensity of TPE 1 at 476 nm is increased by −240 fold (FIG. 11A). Its absorption maximum shifts from 310 nm in the solution to 330 nm in the suspension. The excitation maximum of TPE 1 locates at 330 nm, coinciding well with its absorption maximum. […] Evidently, the emission of TPE 1 is induced by the aggregate formation, or in other words, TPE 1 is AIE-active.
The ΦF value of TPE 1 starts to increase when the water fraction is increased to ˜50%, at which the solvating power of the mixture is decreased to such an extent that the dye molecules begin to aggregate. The ΦF value reaches ˜20% at a water content of 99%, which is ˜40-fold higher than that of its AN solution. […] Their emissions in the mixtures remain as faint as those in the water solutions.

[2] = as above; assay type: physicochemical; conditions: for Emission maximum wavelength (λem): excitation 350 nm
calf thymus DNA (ctDNA) = assay: Fluorimetric titration of ctDNA to polyenes; assay type: binding; conditions: for Relative affinity to ctDNA versus BSA: phosphate buffer pH 7, dye 2.5 μM
Protocol: (§1) Fluorimetric titration of biomacromolecules to polyenes Bovine serum albumin (BSA) and calf thymus DNA (ctDNA) were selected as model proteins and DNA. BSA was dissolved in a pH 7.0 phosphate buffer solution (1.0 mg/ml). DNA was dissolved in deionized water (1.0 mg/ml) and filtered through a 0.45 μm filter. The actual concentration (in nucleic base) was determined by UV photometry using the extinction coefficient ε260=6600 M^−1 cm^−1.
(§2) Stock solutions of polyenes were 5×10^−4 M in water. Fluorescence titration was carried out by sequentially adding 100 μl aliquots of DNA or BSA solutions to a 100 μl stock solution of polyenes, followed by adding an aqueous phosphate buffer (10 mM, pH 7) to acquire a 10.00 ml solution. The mixtures were stirred for half an hour prior to taking their spectra.
Complexation of the water-soluble AIE TPEs 3 and 4 with calf thymus DNA (ctDNA) and bovine serum albumin (BSA) were investigated by spectrometric titrations in aqueous phosphate buffer (pH=7.0) at 25 C. Stock solutions of TPEs 3 and 4 (0.25 mM) were prepared. The mixture of 100 μl stock solution of 3 with 9.9 ml buffer emits faintly at 395 nm with a side band at 462 nm. Its absorption maximum locates at 311 nm, with a molar absorptivity of 12400M^−1 cm^−1. Upon addition of the DNA, FL intensity of TPE 3 increased by 5.4 fold. Meanwhile its emission maximum shifted to ˜462 nm, giving a Stokes shift as large as 134 nm. In the DNA concentration range of 0-100 μg/ml^−1, the plot of the FL intensity (1) at 462 nm as a function of DNA concentration (c) is a linear line with a correlation coefficient of 0.996. Addition of BSA to a buffer solution of TPE 3 induced a similar effect. The linear range of the I/IO−1 vs. c plot in this case is 0-50 μg/ml^−1. The excitation maximums of the solutions of TPE3 containing BSA and ctDNA both locate at 328 nm.

[3] = target: Bovine serum albumin (BSA) (Bos taurus, UniProt P02769); assay: Fluorimetric titration of BSA to polyenes; assay type: binding; conditions: for ΦE (quantum yield), bind / λex (emission maximum), bind: BSA solution of TPE-OH•Na2 or TPE-SO3 in aqueous phosphate buffer pH 7.0; for λex (emission maximum), bind: excitation 350 nm
Protocol: as §1, §2
Complexation of the water-soluble AIE TPEs 3 and 4 with calf thymus DNA (ctDNA) and bovine serum albumin (BSA) were investigated by spectrometric titrations in aqueous phosphate buffer (pH=7.0) at 25 C. Stock solutions of TPEs 3 and 4 (0.25 mM) were prepared.

HG21 DNA = assay: CD spectra: G-quadruplex induction by TPE derivatives; assay type: biochemical; conditions: 9 μM DNA, 4.5 μM TPE derivative, Tris-HCl pH 7.5, 25 °C
Protocol: [TPE]=4.5 μM; [HG21]=9 μM and [K^+]=0.5 M.
CD spectral profiles of 9 μM DNA in 5 mM Tris-HCl buffer solutions (pH 7.5) incubated under 25° C. with four different TPE derivatives at 4.5 μM or with 0.5M K^+ ions are studied (FIG. 77). TPE derivatives 1-4 are TTAPE (Example 6), TPE-2 (chemical structure is not shown herein), TPE-3 (chemical structure is not shown herein) and TPE-C2N+ (Example 3), respectively. […] On the other hand, DNA incubated with TTAPE or the known quadruplex inducer; K^+ ions have very similar spectral profiles, while the ellipticities of DNA/TTAPE are somehow weaker than DNA/K^+.

[4] = test system: ctDNA/RNA from torula yeast/BSA; assay: Fluorescence increments / binding isotherm with ctDNA, RNA and BSA; conditions: 10 μg/ml ctDNA or RNA, dye 5 μM
Protocol: FIG. 8 illustrates increments of fluorescence of TPE-C2N^+ (8), N+C2-TPE-C2N^+ (9), TPE-C4N^+ (10), N+C4-TPE-C4N^+ (11) when binding with 10 μg/ml ctDNA/10 μg/ml RNA diethylaminoethanol (DEAE) salt from torula yeast/10 μg/ml RNA from torula yeast in buffer solution pH=7. Concentration of dyes: 5 μM; excitation wavelength: 350 nm. The four cationic TPE derivatives display larger FL enhancement in the presence of DNA than that of RNA.
FIG. 9 illustrates the binding isotherm of N+C2-TPE-C2N^+ (5 μM) to ctDNA/RNA from torula yeast/BSA (plot of the fluorescence intensity at 470 nm for ctDNA/RNA, and at 467 nm for BSA) in aqueous phosphate buffer (pH=7.0).

lysozyme = assay: FL during lysozyme fibril formation; conditions: 10, 50 and 100 μM, over 4 days
[5] = test system: heparin, apoferritin, cellulose, papain, native and fibrillar insulin; assay: FL specificity against other protein monomers; conditions: protein 1.0 mg/mL
amyloid-β-peptide = amyloid-β-peptide (Homo sapiens, UniProt P05067); assay: FL with amyloid-β-peptide before and after aging; conditions: 0.1 mg/mL amyloid-β-peptide, λex 350 nm
[6] = aggregate: 99% water/AN for TPE-OMe and TPE-OH, 99% AN/water for TPE-SO3
[7] = solution: acetonitrile for TPE-OMe and TPE-OH (10 μM), water for TPE-SO3 (5 μM)

Bovine serum albumin (BSA), sequence (P02769 25-607): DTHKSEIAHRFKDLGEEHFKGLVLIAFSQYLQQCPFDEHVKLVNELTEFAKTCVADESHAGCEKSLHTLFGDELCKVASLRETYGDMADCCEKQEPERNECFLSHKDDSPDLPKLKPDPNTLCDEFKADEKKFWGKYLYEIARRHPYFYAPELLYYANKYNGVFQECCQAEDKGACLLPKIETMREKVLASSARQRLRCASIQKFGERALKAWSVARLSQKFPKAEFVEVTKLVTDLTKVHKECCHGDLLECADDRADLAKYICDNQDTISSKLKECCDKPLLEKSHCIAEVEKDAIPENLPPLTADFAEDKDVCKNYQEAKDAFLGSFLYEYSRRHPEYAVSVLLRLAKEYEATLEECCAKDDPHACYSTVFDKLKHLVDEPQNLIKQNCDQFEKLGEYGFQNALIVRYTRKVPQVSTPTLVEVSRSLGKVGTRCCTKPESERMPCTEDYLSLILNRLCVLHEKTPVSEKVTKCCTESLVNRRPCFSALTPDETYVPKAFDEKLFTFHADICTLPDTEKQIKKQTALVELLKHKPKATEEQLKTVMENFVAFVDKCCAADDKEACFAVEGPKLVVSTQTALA
HSA, sequence (P02768 25-609): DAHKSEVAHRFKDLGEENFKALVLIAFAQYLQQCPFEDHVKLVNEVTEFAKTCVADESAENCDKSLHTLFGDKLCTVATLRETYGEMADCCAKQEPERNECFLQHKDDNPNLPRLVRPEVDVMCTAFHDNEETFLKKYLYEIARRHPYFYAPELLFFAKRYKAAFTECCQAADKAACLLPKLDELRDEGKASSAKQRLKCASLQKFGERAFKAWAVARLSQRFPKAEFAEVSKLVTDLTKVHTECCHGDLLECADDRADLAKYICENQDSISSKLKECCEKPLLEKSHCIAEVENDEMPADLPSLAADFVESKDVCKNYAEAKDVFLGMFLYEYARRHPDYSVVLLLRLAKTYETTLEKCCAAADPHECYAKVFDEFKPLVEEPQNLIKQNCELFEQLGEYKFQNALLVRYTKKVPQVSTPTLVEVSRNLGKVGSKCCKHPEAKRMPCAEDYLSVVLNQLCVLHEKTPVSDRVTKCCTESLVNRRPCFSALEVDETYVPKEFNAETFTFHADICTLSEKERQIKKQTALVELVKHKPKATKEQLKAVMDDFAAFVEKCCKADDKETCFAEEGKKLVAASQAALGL
amyloid-β-peptide, sequence (P05067 672-711 limits assumed): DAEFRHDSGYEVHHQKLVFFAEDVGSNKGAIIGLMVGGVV

Compound: Coomassie Brilliant Blue
Staining reaction (soaking) time (HSA): more than 6 hours

Compound: CC[N+](CC)(CC)CCCCOc1ccc(/C(=C(\c2ccccc2)c2ccc(OCCCC[N+](CC)(CC)CC)cc2)c2ccccc2)cc1.[Br-].[Br-] [TPE-C4N^+, N,N′-[1,2-Diphenyl-1,2-bis(1,4-phenoxybutyl)vinyl]bis(triethylammonium bromide)]
Linear range of FL intensity vs DNA concentration (calf thymus DNA (ctDNA)): 0-20 μg/ml^−1 | I/Io (calf thymus DNA (ctDNA); 300 μg/ml ct DNA added): 16.3 | Relative affinity to ctDNA versus BSA (calf thymus DNA (ctDNA)): gives the opposite result | Solubility in water (Solubility): soluble in water | Linear range of FL intensity vs BSA concentration [3]: 0-40 μg/ml^−1 | I/Io ([3]; 500 μg/ml BSA added): 23.8

Compound: CC[N+](CC)(CC)CCOc1ccc(/C(=C(\c2ccccc2)c2ccc(OCC[N+](CC)(CC)CC)cc2)c2ccccc2)cc1.[Br-].[Br-] [TPE-C2N^+, N,N′-[1,2-Diphenyl-1,2-bis(1,4-phenoxyethyl)vinyl]bis(triethylammonium bromide)]
Linear range of FL intensity vs DNA concentration (calf thymus DNA (ctDNA)): 0-100 μg/ml^−1 | FL intensity increase upon addition of DNA (calf thymus DNA (ctDNA); phosphate buffer pH 7.0, 25 C): 5.4 fold | Relative affinity to ctDNA versus BSA (calf thymus DNA (ctDNA)): better affinity to ctDNA than BSA | Solubility in water (Solubility): soluble in water | G-quadruplex induction (CD spectral profile) (HG21 DNA): spectral profile comparable to the negative control | Linear range of FL intensity vs BSA concentration [3]: 0-50 μg/ml^−1

Compound: CC[N+](CC)(CC)CCCCOc1ccc(C(=C(c2ccc(OCCCC[N+](CC)(CC)CC)cc2)c2ccc(OCCCC[N+](CC)(CC)CC)cc2)c2ccc(OCCCC[N+](CC)(CC)CC)cc2)cc1.[Br-].[Br-].[Br-].[Br-] [N+C4-TPE-C4N^+, N,N′,N″,N′″-[1,2-Tetrakis(1,4-phenoxybutyl)vinyl)tetrakis(triethylammonium bromide)]
Variety of FL in presence of DNA and RNA compared with TPE-C2N+ and TPE-C4N+ [4]: much larger variety of FL

Compound: 1,2-Diphenyl-1,2-bis(4,4′-(3-sulfonato)propoxyl)phenylethylene [TPE-SO3]
Fluorescence profile during lysozyme fibril formation (lysozyme): produces fluorescence profile corresponding to lysozyme fibrillation | FL with fibrillar insulin [5]: significantly higher than other cellular proteins tested | FL with heparin, apoferritin and cellulose [5]: comparable to TPE-SO3 solution alone | FL with papain [5]: comparable to native insulin monomer | ΦE (quantum yield), aggr [2, 6]: 17.47% | λab (absorption maximum), aggr [2, 6]: 320 nm | Emission maximum wavelength (λem) [2, 6]: 442 nm | ΦE (quantum yield), soln [2, 7]: 0.37% | λab (absorption maximum), soln [2, 7]: 312 nm | Emission maximum wavelength (λem) [2, 7]: 398 nm | ΦE (quantum yield), bind [3]: 58.2% | λex (emission maximum), bind [3]: 472 nm | FL intensity increase upon binding with BSA ([3]; aqueous phosphate buffer, 472 nm): up to 240 times | Emission on formation of amyloid-β-peptide fibrils (after aging) (amyloid-β-peptide): increases dramatically

Further lines, results first:

Solubility in water (Solubility): insoluble in water | Increase of fluorescent intensity at 476 nm, AN solution to AN-water (1:99) suspension [1]: 240 fold | Increase of ΦF at 99% water versus AN solution [1]: ~40 fold | Fluorescence quantum yield (ΦF), molecularly dissolved [1]: ~0.5% | Fluorescence quantum yield (ΦF), aggregated [1]: ~20%
Compound: BrCCOc1ccc(C(=C(c2ccccc2)c2ccc(OCCBr)cc2)c2ccccc2)cc1 [TPE 1, 1,2-Bis[4-(2-bromoethoxy)phenyl]-1,2-diphenylethene]

ΦE (quantum yield), aggr [2, 6]: 15.30% | λab (absorption maximum), aggr [2, 6]: 330 nm | Emission maximum wavelength (λem) [2, 6]: 477 nm | ΦE (quantum yield), soln [2, 7]: 0.11% | λab (absorption maximum), soln [2, 7]: 311 nm | Emission maximum wavelength (λem) [2, 7]: 394 nm
Compound: COc1ccc(C(=C(c2ccccc2)c2ccc(OC)cc2)c2ccccc2)cc1 [TPE-OMe, 1,2-Bis(4-methoxyphenyl)-1,2diphenylethene]

Solubility in water (Solubility): totally insoluble in water | Increase of ΦF at 99% water versus AN solution [1]: ~35 fold | Fluorescence quantum yield (ΦF), molecularly dissolved [1]: 0.5% | Fluorescence quantum yield (ΦF), aggregated [1]: 18%
Compound: BrCCOc1ccc(C(=C(c2ccc(OCCBr)cc2)c2ccc(OCCBr)cc2)c2ccc(OCCBr)cc2)cc1 [TBEPE, 1,1,2,2-tetrakis[4-(2-bromoethoxy}phenyl]ethene]

ΦE (quantum yield), aggr [2, 6]: 8.90% | λab (absorption maximum), aggr [2, 6]: 316 nm | Emission maximum wavelength (λem) [2, 6]: 439 nm | ΦE (quantum yield), soln [2, 7]: 0.57% | λab (absorption maximum), soln [2, 7]: 312 nm | Emission maximum wavelength (λem) [2, 7]: 393 nm | ΦE (quantum yield), bind [3]: 35.7% | λex (emission maximum), bind [3]: 467 nm | Linear range of FL intensity vs BSA concentration ([3]; aqueous phosphate buffer pH 7.0): 0 to 10 µg/mL
Compound: Oc1ccc(/C(=C(\c2ccccc2)c2ccc(O)cc2)c2ccccc2)cc1 [TPE-OH, 1,2-Bis(4-hydroxyphenyl)-1,2-diphenylethylene]

Solubility in water (Solubility): insoluble
Compound: O=C(O)c1ccc(/C(=C(\c2ccccc2)c2ccc(C(=O)O)cc2)c2ccccc2)cc1 [TPE-COOH, 4,4′-(1,2-diphenylvinyl)di(phenylcarboxylic acid)]
